In patent US10124019B2, “Compositions and their use for removing cholesterol” (Cornell University, priority 2009, dated 2018):
Read-outs that look alike come from different tables or passages of the source.

Key:
[1] = system: NPC1 fibroblast GM03123; assay: HDAC inhibitor dose and time dependence on LSO cholesterol; assay type: cell-based, human
Text: FIG. 19. Plots showing the dose and time dependence for each of the studied HDACi compounds as a function of time on NPC1 fibroblast GM03123.
Dose and time dependence for each of the studied HDACi compounds as a function of time on NPC1 fibroblast GM03123 are shown in the plots of FIG. 19. Each data point in the plot is representative of a total of 32 images from two independent experiments. The SD for DMSO is 0.07, error bar=SE. The dotted line represents the DMSO control.

[2] = system: human NPC1 cells; assay: Removal of cholesterol from LSOs by filipin staining and digital image analysis
Protocol: Graph showing the concentration and time dependence of the removal of cholesterol from LSOs of human NPC1 cells incubated with the indicated concentrations of MβCD in complete medium for 1-4 days.
Graph showing concentration of cholesterol from LSOs of NPC1 cells incubated with 0.33 mM MβCD for one hour under various conditions (i.e., no FBS, 10% FBS, and cholesterol-loaded MβCD (i.e., “MbCD/cholest.”), and these with either no chase or a 24 hour chase). At the end of the incubation, cells were rinsed thoroughly, and returned to complete medium for 24 hours.
Graph comparing the cholesterol-lowering ability of MβCD and a MβCD-dextran composition of the instant invention. Human NPC1 cells were incubated with MβCD (●) or Dextran-PEG-MbCD (O) for 39 hours. The polymers had about two MβCDs per polymer, and the concentration is the MβCD concentration.
(A) Cells were treated for 2 days with 50 μM MβCD or 50 μM MβCD conjugated to dextran fixed with paraformaldehyde, stained, and imaged. Cholesterol accumulation in LSOs was measured by quantifying filipin fluorescence. Data represent averages±SEM of one representative experiment (n=8, where n is total number of wells per condition used for quantification).
In this experiment, studies were conducted to determine the effects of MβCD on NPC1 and NPC2 cells. […] The cells were then rinsed and incubated in complete medium for 24 hours. […] To further emphasize this, the one-hour loading pulse was conducted with cholesterol-loaded MβCD, which would actually increase the cellular cholesterol during the loading period.

Compound	reduction of cholesterol in the LSOs [1]	reduction of cholesterol in the LSOs ([1]; 10 μM, other experiments (not shown))	reversal of cholesterol accumulation in LSOs (filipin) ([2]; 50 μM MβCD conjugated to dextran, 2 days (FIG. 11A))	cholesterol-lowering in LSOs ([2]; 39 hours, about two MβCDs per polymer (FIG. 3))
O=C(CCCCCCC(=O)Nc1ccccc1)NO [SAHA, suberoylanilide hydroxamic acid]	somewhat effective	much more effective		
MβCD-NH-(PEG)3-CONH-aminodextran [MβCD-dextran]			can also reverse cholesterol accumulation	significant effect
